Earlier results on 1 substance are cited in patent publication EP3568126B1, “[…] COMPOSITION” (Torrent Pharmaceuticals Limited, priority 2017, dated 2018).

For “3-[(1R,2R)-3-(dimethylamino)-1-ethyl-2-methylpropyl]phenol [tapentadol]”, the “time of maximum serum concentration” value (after oral dosing) is recorded as “around 1.25 hours”. Also, where the note is “oral administration”, the “administered tapentadol metabolized (first-pass metabolism)” value is reported as “about 97%” and the bioavailability is on record as 32%. Further, where the note is “oral formulations”, the “time after administration at which absorption occurs” value is given as “at least 45 minutes”.
